# Source: patent publication US20090036492A1, “Novel Cercosporamide Derivative” (priority 2005, published 2009)
# Tested on: male KK mice
# Test: Blood glucose lowering effect in diabetic KK mice
# Assay type: in vivo
# Conditions: 15 to 20 weeks old, feed containing 0.03% of the compound, three days, blood glucose on the 3rd day vs control group
# Description: Six-week-old male KK mice were purchased from CLEA Japan, Inc. and then were fed until 15 to 20 weeks old and affected with diabetes. The mice were individually fed during the adaptation period and the test period, and water and feed (FR2, Funabashi Farm) were freely ingested.
# At the start of the experiment, after body weight measurement, blood was collected from the tail vein of the mice into a heparin-coated glass tube and centrifuged, and then plasma was separated. The glucose level in the plasma was measured by Glucoloader GXT (A&T Corp.), and individuals having a blood glucose level of about 350 mg/dl or more were selected. Groups each having 3 to 4 mice were used for the experiment, and the mice were grouped to make the average body weight and the average blood glucose level similar. Each compound was administered to a compound administration group by feeding a mixture with feed containing 0.03% of the compound. A separate group in which the mice were fed only with feed was a control group.
# The experiment period (drug administration period) was three days. The grouping day was the 0th day. On the 3rd day, body weight was measured and blood was collected from the tail vein to measure the blood glucose level.
# The blood glucose lowering efficacy was determined by the following formula.
# Blood glucose lowering efficacy=[(Control group blood glucose level−Compound administration group blood glucose level)/Control group blood glucose level]×100
row,SMILES,Blood glucose lowering efficacy (%)
1,"COc1cc(O)c2c(c1C(=O)NCc1ccc(OCc3ccccc3F)c3ccccc13)OC1=CC(O)=C(C(C)=O)C(=O)[C@]12C [Example 144, (9aS)-8-Acetyl-N-({4-[(2-fluorobenzyl)oxy]-1-naphthyl}methyl)-1,7-dihydroxy-3-methoxy-9a-methyl-9-oxo-9,9a-dihydrodibenzo[b,d]furan-4-carboxamide]",41%
2,"COc1cc(O)c2c(c1C(=O)NCc1ccc(Oc3ccccc3Cl)c3ccccc13)OC1=CC(O)=C(C(C)=O)C(=O)[C@]12C [Example 166, (9aS)-8-Acetyl-N-{[4-(2-chlorophenoxy)-1-naphthyl]methyl}-1,7-dihydroxy-3-methoxy-9a-methyl-9-oxo-9,9a-dihydrodibenzo[b,d]furan-4-carboxamide]",47%

# Same assay, conditions: Mus musculus, po, 72 h, 15 to 20 weeks old, feed containing 0.03% of the compound, three days, blood glucose on the 3rd day vs control group, read-out: Blood glucose lowering efficacy (%)
row,SMILES,inhibition in vivo at 0.03 % in feed
1,"CC#CCOc1cc(C)c(CNC(=O)c2c(OC)cc(O)c3c2OC2=CC(O)=C(C(C)=O)C(=O)[C@]23C)c(C)c1C [Example 102, (9aS)-8-Acetyl-N-[4-(2-butynyloxy)-2,3,6-trimethylbenzyl]-1,7-dihydroxy-3-methoxy-9a-methyl-9-oxo-9,9a-dihydrodibenzo[b,d]furan-4-carboxamide]",63%
2,"CCC#CCOc1cc(C)c(CNC(=O)c2c(OC)cc(O)c3c2OC2=CC(O)=C(C(C)=O)C(=O)[C@]23C)c(C)c1C [Example 103, (9aS)-8-Acetyl-1,7-dihydroxy-3-methoxy-9a-methyl-9-oxo-N-[2,3,6-trimethyl-4-(2-pentynyloxy)benzyl]-9,9a-dihydrodibenzo[b,d]furan-4-carboxamide]",62%
3,"COc1cc(O)c2c(c1C(=O)NCc1ccc(OCc3ccccc3)c3ccccc13)OC1=CC(O)=C(C(C)=O)C(=O)[C@]12C [Example 104, (9aS)-8-Acetyl-N-{[4-(benzyloxy)-1-naphthyl]methyl}-1,7-dihydroxy-3-methoxy-9a-methyl-9-oxo-9,9a-dihydrodibenzo[b,d]furan-4-carboxamide]",53%
4,"COc1cc(O)c2c(c1C(=O)NCc1ccc(OCc3ccc(F)cc3)c3ccccc13)OC1=CC(O)=C(C(C)=O)C(=O)[C@]12C [Example 106, (9aS)-8-Acetyl-N-({4-[(4-fluorobenzyl)oxy]-1-naphthyl}methyl)-1,7-dihydroxy-3-methoxy-9a-methyl-9-oxo-9,9a-dihydrodibenzo[b,d]furan-4-carboxamide]",51%
5,"COc1cc(O)c2c(c1C(=O)NCc1c(C)cc(NS(=O)(=O)c3ccc(Cl)cc3Cl)cc1C)OC1=CC(O)=C(C(C)=O)C(=O)[C@]12C [Example 111, (9aS)-8-Acetyl-N-(4-{[(2,4-dichlorophenyl)sulfonyl]amino}-2,6-dimethylbenzyl)-1,7-dihydroxy-3-methoxy-9a-methyl-9-oxo-9,9a-dihydrodibenzo[b,d]furan-4-carboxamide]",31%
6,"CCc1c(C)cc2ccccc2c1CNC(=O)c1c(OC)cc(O)c2c1OC1=CC(O)=C(C(C)=O)C(=O)[C@]12C [Example 116, (9aS)-8-Acetyl-N-[(2-ethyl-3-methyl-1-naphthyl)methyl]-1,7-dihydroxy-3-methoxy-9a-methyl-9-oxo-9,9a-dihydrodibenzo[b,d]furan-4-carboxamide]",32%
7,"COc1cc(O)c2c(c1C(=O)NCc1c(C)cc(NS(=O)(=O)c3cc(C)c(Cl)cc3Cl)cc1C)OC1=CC(O)=C(C(C)=O)C(=O)[C@]12C [Example 140, (9aS)-8-Acetyl-N-(4-{[(2,4-dichloro-5-methylphenyl)sulfonyl]amino}-2,6-dimethylbenzyl)-1,7-dihydroxy-3-methoxy-9a-methyl-9-oxo-9,9a-dihydrodibenzo[b,d]furan-4-carboxamide]",18%
8,"COc1cc(O)c2c(c1C(=O)NCc1ccc(OCc3ccc(F)cc3F)c3ccccc13)OC1=CC(O)=C(C(C)=O)C(=O)[C@]12C [Example 146, (9aS)-8-Acetyl-N-({4-[(2,4-difluorobenzyl)oxy]-1-naphthyl}methyl)-1,7-dihydroxy-3-methoxy-9a-methyl-9-oxo-9,9a-dihydrodibenzo[b,d]furan-4-carboxamide]",49%
9,"COc1cc(O)c2c(c1C(=O)NCc1ccc(OCc3ccccc3Cl)c3ccccc13)OC1=CC(O)=C(C(C)=O)C(=O)[C@]12C [Example 147, (9aS)-8-Acetyl-N-({4-[(2-chlorobenzyl)oxy]-1-naphthyl}methyl)-1,7-dihydroxy-3-methoxy-9a-methyl-9-oxo-9,9a-dihydrodibenzo[b,d]furan-4-carboxamide]",62%
10,"C=CCO/N=C(\C)C1=C(O)C=C2Oc3c(C(=O)NCc4c(C)cc(NS(=O)(=O)c5ccc(Cl)cc5Cl)cc4C)c(OC)cc(O)c3[C@]2(C)C1=O [Example 162, (9aS)-8-[(1E)-N-(Allyloxy)ethaneimidoyl]-N-(4-{[(2,4-dichlorophenyl)sulfonyl]amino}-2,6-dimethylbenzyl)-1,7-dihydroxy-3-methoxy-9a-methyl-9-oxo-9,9a-dihydrodibenzo[b,d]furan-4-carboxamide]",43%
11,"COc1cc(O)c2c(c1C(=O)NCc1ccc(Oc3ccc(Cl)cc3Cl)c3ccccc13)OC1=CC(O)=C(C(C)=O)C(=O)[C@]12C [Example 164, (9aS)-8-Acetyl-N-{[4-(2,4-dichlorophenoxy)-1-naphthyl]methyl}-1,7-dihydroxy-3-methoxy-9a-methyl-9-oxo-9,9a-dihydrodibenzo[b,d]furan-4-carboxamide]",43%
12,"COc1cc(O)c2c(c1C(=O)NCc1ccc(Oc3ccc(Cl)cc3)c3ccccc13)OC1=CC(O)=C(C(C)=O)C(=O)[C@]12C [Example 167, (9aS)-8-Acetyl-N-{[4-(4-chlorophenoxy)-1-naphthyl]methyl}-1,7-dihydroxy-3-methoxy-9a-methyl-9-oxo-9,9a-dihydrodibenzo[b,d]furan-4-carboxamide]",30%
13,"COc1cc(O)c2c(c1C(=O)NCc1c(C)cc(C)c3ccccc13)OC1=CC(O)=C(C(C)=O)C(=O)[C@]12C [Example 171, (9aS)-8-Acetyl-1,7-dihydroxy-3-methoxy-9a-methyl-N-[(2,4-dimethyl-1-naphthyl)methyl]-9-oxo-9,9a-dihydrodibenzo[b,d]furan-4-carboxamide]",47%
14,"COc1cc(O)c2c(c1C(=O)NCc1c(C)ccc3c(F)cc(F)cc13)OC1=CC(O)=C(C(C)=O)C(=O)[C@]12C [Example 176, (9aS)-8-Acetyl-N-[(5,7-difluoro-2-methyl-1-naphthyl)methyl]-1,7-dihydroxy-3-methoxy-9a-methyl-9-oxo-9,9a-dihydrodibenzo[b,d]furan-4-carboxamide]",40%
15,"COc1cc(O)c2c(c1C(=O)NCc1c(C)cc(Br)c3ccccc13)OC1=CC(O)=C(C(C)=O)C(=O)[C@]12C [Example 177, (9aS)-8-Acetyl-N-[(4-bromo-2-methyl-1-naphthyl)methyl]-1,7-dihydroxy-3-methoxy-9a-methyl-9-oxo-9,9a-dihydrodibenzo[b,d]furan-4-carboxamide]",43%
16,"COc1cc(O)c2c(c1C(=O)NCc1c(C)cc(Cl)c3ccccc13)OC1=CC(O)=C(C(C)=O)C(=O)[C@]12C [Example 178, (9aS)-8-Acetyl-N-[(4-chloro-2-methyl-1-naphthyl)methyl]-1,7-dihydroxy-3-methoxy-9a-methyl-9-oxo-9,9a-dihydrodibenzo[b,d]furan-4-carboxamide]",37%
